The target in this test is T1, TNFα (Homo sapiens, UniProt P01375).
T1 construct: a human whole blood assay driven by endogenously expressed TNFα; endogenous in cells; host or cells: EDTA anticoagulated human whole blood, stimulated with 1 ug/ml zymosan
Kind of test: TNF human whole blood screening assay: CD11b expression on granulocytes after zymosan challenge. The conditions noted are these: whole blood IC50 multiplied by the unbound fraction (Fu) in human blood; read-out: free IC50 in the human whole blood assay. It is filed as cell-based. The procedure:
Furthermore, the compounds in accordance with the present invention are potent inhibitors of CD11b expressed on granulocytes in human blood cells, when tested in the human whole blood assay as described herein.
TNF Human Whole Blood Screening Assay
The compounds according to the Examples were assessed in a human whole blood assay driven by endogenously expressed TNFα by measuring the expression of CD11b on granulocytes in human whole blood challenged with zymosan. Zymosan binds to TLR2 and other receptors, leading to NF-κB signalling which in turn induces the production of pro-inflammatory mediators, including TNFα. In turn, TNFα can stimulate the expression of CD11b on granulocytes.
Compounds were diluted from 10 mM DMSO stocks (final assay concentration of 0.2% DMSO) to generate a 10-point 2.5-fold serial dilution curve (for example, 20,000 nM to 5.3 nM final assay concentration). Diluted compound was preincubated with EDTA anticoagulated human whole blood for 60 minutes at 37° C. prior to stimulation with 1 ug/ml zymosan. After 3 hours stimulation with zymosan, the whole blood was stained with fluorescent labelled anti CD45 and anti CD11b antibodies. The samples were fixed and red blood cells lysed before analysis with a FACS CANTO II.
FACS (Fluoresceence Activated Cell Sorting) analysis was performed with FloJo software. SSC-A (Side Scatter Area of peak) and CD45 signal was used to identify granulocytes, followed by SSC-A and SSC-W (Side Scatter Width of peak) to select single cells. MESF (Molecules of Equivalent Soluble Fluorochrome) beads were used to calibrate the CD11b signal on single cell granulocytes. Activation of CD11b was inhibited in a dose dependent manner by the TNFα inhibitor.
Percentage inhibition of compounds was calculated against TNFα containing DMSO alone (control) and maximum inhibition generated with excess blocking anti-TNFα monoclonal antibody. An inhibition curve was constructed in ActivityBase using a 4 parameter logistic model (XLfit™). The point of inflexion between the fitted minimum and maximum effects of the inhibitor gives the IC50 value.
A calculated IC50 for the free compound (herein referred to as “free IC50”) that takes into account the extent of fraction unbound in blood was determined by multiplying the IC50 generated from the first assay (human whole blood screening assay) by the unbound fraction (Fu), generated from the second assay (human blood binding assay).

A value given as a limit tells only on which side of the number the result lay.

Usually IC50 stands for the concentration that gives 50% inhibition.

T1 sequence (P01375 77-233 limits assumed): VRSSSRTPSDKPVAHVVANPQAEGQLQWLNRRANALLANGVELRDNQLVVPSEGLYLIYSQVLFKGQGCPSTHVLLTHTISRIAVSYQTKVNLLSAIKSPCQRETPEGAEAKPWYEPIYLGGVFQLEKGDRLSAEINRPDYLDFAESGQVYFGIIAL

As for `[2H]C([2H])([2H])N1C(=O)c2cccc(OC(F)F)c2[C@H]2C[C@@H]1c1nc3ccc(-c4cnc([C@]5(O)C[C@@](C)(C#N)C5)nc4)cc3n12` [Example 1, 3-[5-[(1R,11R)-18-(difluoromethoxy)-13-oxo-12-(trideuteriomethyl)-2,9,12-triazapentacyclo[9.8.1.02,10.03,8.014,19]icosa-3(8),4,6,9,14(19),15,17-heptaen-5-yl]pyrimidin-2-yl]-3-hydroxy-1-methylcyclobutane-1-carbonitrile], the half-maximal inhibitory concentration (IC50) is roughly 6 nM.
The value for `C[C@]1(C#N)C[C@](O)(c2ncc(-c3ccc4nc5n(c4c3)[C@@H]3C[C@H]5NC(=O)c4cccc(OC(F)F)c43)cn2)C1` [Example 2, 3-[5-[(1R,11R)-18-(difluoromethoxy)-13-oxo-2,9,12-triazapentacyclo[9.8.1.02,10.03,8.014,19]icosa-3(8),4,6,9,14(19),15,17-heptaen-5-yl]pyrimidin-2-yl]-3-hydroxy-1-methylcyclobutane-1-carbonitrile] was roughly 12 nM.
The same measure for `C[C@]1(C#N)C[C@](O)(c2ncc(-c3cc4c(cc3F)nc3n4[C@@H]4C[C@H]3NC(=O)c3cccc(OC(F)F)c34)cn2)C1` [Example 3, 3-[5-[(1R,11R)-18-(difluoromethoxy)-6-fluoro-13-oxo-2,9,12-triazapentacyclo[9.8.1.02,10.03,8.014,19]icosa-3(8),4,6,9,14(19),15,17-heptaen-5-yl]pyrimidin-2-yl]-3-hydroxy-1-methylcyclobutane-1-carbonitrile]: roughly 6 nM; for `CN1C(=O)c2cccc(OC(F)F)c2[C@H]2C[C@@H]1c1nc3ccc(-c4cnc([C@]5(O)C[C@@](C)(C#N)C5)c(F)c4)cc3n12` [Example 4, 3-[5-[(1R,11R)-18-(difluoromethoxy)-12-methyl-13-oxo-2,9,12-triazapentacyclo[9.8.1.02,10.03,8.014,19]icosa-3,5,7,9,14(19),15,17-heptaen-5-yl]-3-fluoropyridin-2-yl]-3-hydroxy-1-methylcyclobutane-1-carbonitrile]: less than 4 nM.
The same measure for `C[C@]1(C#N)C[C@](O)(c2ncc(-c3ccc4nc5n(c4c3)[C@@H]3C[C@H]5NC(=O)c4cccc(OC(F)F)c43)cc2F)C1` [Example 5, 3-[5-[(1R,11R)-18-(difluoromethoxy)-13-oxo-2,9,12-triazapentacyclo[9.8.1.02,10.03,8.014,19]icosa-3,5,7,9,14(19),15,17-heptaen-5-yl]-3-fluoropyridin-2-yl]-3-hydroxy-1-methylcyclobutane-1-carbonitrile]: roughly 5 nM; for `CN1C(=O)c2cccc(OC(F)F)c2[C@H]2C[C@@H]1c1nc3ccc(-c4cnc([C@]5(C#N)C[C@@](C)(O)C5)nc4)cc3n12` [Example 6, 1-[5-[(1R,11R)-18-(difluoromethoxy)-12-methyl-13-oxo-2,9,12-triazapentacyclo[9.8.1.02,10.03,8.014,19]icosa-3(8),4,6,9,14(19),15,17-heptaen-5-yl]pyrimidin-2-yl]-3-hydroxy-3-methylcyclobutane-1-carbonitrile]: less than 4 nM; for `CN1C(=O)c2cccc(OC(F)F)c2[C@H]2C[C@@H]1c1nc3ccc(-c4cnc([C@]5(C#N)C[C@@](C)(O)C5)c(F)c4)cc3n12` [Example 7, 1-[5-[(1R,11R)-18-(difluoromethoxy)-12-methyl-13-oxo-2,9,12-triazapentacyclo[9.8.1.02,10.03,8.014,19]icosa-3(8),4,6,9,14(19),15,17-heptaen-5-yl]-3-fluoropyridin-2-yl]-3-hydroxy-3-methylcyclobutane-1-carbonitrile]: less than 4 nM.

(Values after patent publication US11554122B2, “Fused pentacyclic imidazole derivatives as modulators of TNF activity” (UCB Biopharma SRL, priority 2018, dated 2023).)
